Reference: the supplement of paper PMC10307832

Tests used:
Assay in all cases: relative viability (nuclei count vs DMSO), 5 days (fraction); higher = more cells survive
201T = tested on: 201T
Outline: (§1)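 Values are medians from duplicate plates. Each reflects relative viability, defined as the nuclei count of treated wells over that of vehicle wells. Lung cancer cell lines in 1536-well plates were pin-tool dosed one day after seeding with one drug alone or with a fixed anchor-drug dose plus five library-drug doses (not always all listed) in √10 steps, then fixed, stained and imaged at 4× after 5 days.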

BEN = tested on: BEN
Outline: as §1

CAL-12T = tested on: CAL-12T
Outline: as §1

HCC-827 = tested on: HCC-827
Outline: as §1

LCLC-103H = tested on: LCLC-103H
Outline: as §1

LCLC-97TM1 = tested on: LCLC-97TM1
Outline: as §1

LXF-289 = tested on: LXF-289
Outline: as §1

NCI-H1395 = tested on: NCI-H1395
Outline: as §1

NCI-H1437 = tested on: NCI-H1437
Outline: as §1

NCI-H1650 = tested on: NCI-H1650
Outline: as §1

NCI-H1793 = tested on: NCI-H1793
Outline: as §1

NCI-H1944 = tested on: NCI-H1944
Outline: as §1

NCI-H2087 = tested on: NCI-H2087
Outline: as §1

NCI-H2228 = tested on: NCI-H2228
Outline: as §1

NCI-H2405 = tested on: NCI-H2405
Outline: as §1

NCI-H3122 = tested on: NCI-H3122
Outline: as §1

NCI-H322M = tested on: NCI-H322M
Outline: as §1

NCI-H647 = tested on: NCI-H647
Outline: as §1

NCI-H727 = tested on: NCI-H727
Outline: as §1

RERF-LC-KJ = tested on: RERF-LC-KJ
Outline: as §1

SK-LU-1 = tested on: SK-LU-1
Outline: as §1

O=c1cc(N2CCOCC2)oc2c(-c3cccc4c3sc3ccccc34)cccc12 + O=C(CCCCCCC(=O)Nc1ccccc1)NO [Vorinostat] (partner 1 µM)
relative viability (201T; first compound 0.01 µM): 0.961
relative viability (201T; first compound 0.03162 µM): 0.95
relative viability (201T; first compound 0.1 µM): 0.982
relative viability (201T; first compound 0.3162 µM): 0.959
relative viability (201T; first compound 1 µM): 0.915
relative viability (BEN; first compound 0.01 µM): 0.56
relative viability (BEN; first compound 0.03162 µM): 0.627
relative viability (BEN; first compound 0.1 µM): 0.49
relative viability (BEN; first compound 0.3162 µM): 0.583
relative viability (BEN; first compound 1 µM): 0.655
relative viability (CAL-12T; first compound 0.01 µM): 0.967
relative viability (CAL-12T; first compound 0.03162 µM): 0.828
relative viability (CAL-12T; first compound 0.1 µM): 0.727
relative viability (CAL-12T; first compound 0.3162 µM): 0.748
relative viability (CAL-12T; first compound 1 µM): 0.618
relative viability (HCC-827; first compound 0.01 µM): 0.897
relative viability (HCC-827; first compound 0.03162 µM): 0.848
relative viability (HCC-827; first compound 0.1 µM): 0.643
relative viability (HCC-827; first compound 0.3162 µM): 0.779
relative viability (HCC-827; first compound 1 µM): 0.774
relative viability (LCLC-103H; first compound 0.01 µM): 0.739
relative viability (LCLC-103H; first compound 0.03162 µM): 0.824
relative viability (LCLC-103H; first compound 0.1 µM): 0.826
relative viability (LCLC-103H; first compound 0.3162 µM): 0.826
relative viability (LCLC-103H; first compound 1 µM): 0.857
relative viability (LCLC-97TM1; first compound 0.01 µM): 0.699
relative viability (LCLC-97TM1; first compound 0.03162 µM): 0.725
relative viability (LCLC-97TM1; first compound 0.1 µM): 0.3
relative viability (LCLC-97TM1; first compound 0.3162 µM): 0.66
relative viability (LCLC-97TM1; first compound 1 µM): 0.784
relative viability (LXF-289; first compound 0.01 µM): 0.797
relative viability (LXF-289; first compound 0.03162 µM): 0.789
relative viability (LXF-289; first compound 0.1 µM): 0.693
relative viability (LXF-289; first compound 0.3162 µM): 0.741
relative viability (LXF-289; first compound 1 µM): 0.827
relative viability (NCI-H1395; first compound 0.03162 µM): 0.719
relative viability (NCI-H1395; first compound 0.1 µM): 0.565
relative viability (NCI-H1395; first compound 0.3162 µM): 1.05
relative viability (NCI-H1395; first compound 1 µM): 0.635
relative viability (NCI-H1437; first compound 0.01 µM): 0.822
relative viability (NCI-H1437; first compound 0.03162 µM): 0.874
relative viability (NCI-H1437; first compound 0.1 µM): 0.866
relative viability (NCI-H1437; first compound 0.3162 µM): 0.784
relative viability (NCI-H1437; first compound 1 µM): 0.806
relative viability (NCI-H1650; first compound 0.01 µM): 0.485
relative viability (NCI-H1650; first compound 0.03162 µM): 0.692
relative viability (NCI-H1650; first compound 0.1 µM): 0.547
relative viability (NCI-H1650; first compound 0.3162 µM): 0.631
relative viability (NCI-H1650; first compound 1 µM): 0.49
relative viability (NCI-H1793; first compound 0.01 µM): 0.771
relative viability (NCI-H1793; first compound 0.03162 µM): 0.612
relative viability (NCI-H1793; first compound 0.1 µM): 0.672
relative viability (NCI-H1793; first compound 0.3162 µM): 0.76
relative viability (NCI-H1793; first compound 1 µM): 0.658
relative viability (NCI-H1944; first compound 0.01 µM): 0.529
relative viability (NCI-H1944; first compound 0.03162 µM): 0.612
relative viability (NCI-H1944; first compound 0.1 µM): 0.503
relative viability (NCI-H1944; first compound 0.3162 µM): 0.48
relative viability (NCI-H1944; first compound 1 µM): 0.616
relative viability (NCI-H2087; first compound 0.01 µM): 0.474
relative viability (NCI-H2087; first compound 0.03162 µM): 0.637
relative viability (NCI-H2087; first compound 0.1 µM): 0.8
relative viability (NCI-H2087; first compound 0.3162 µM): 0.64
relative viability (NCI-H2087; first compound 1 µM): 0.745
relative viability (NCI-H2228; first compound 0.01 µM): 0.669
relative viability (NCI-H2228; first compound 0.03162 µM): 0.896
relative viability (NCI-H2228; first compound 0.1 µM): 0.562
relative viability (NCI-H2228; first compound 0.3162 µM): 0.651
relative viability (NCI-H2228; first compound 1 µM): 0.722
relative viability (NCI-H2405; first compound 0.01 µM): 1.01
relative viability (NCI-H2405; first compound 0.03162 µM): 1.04
relative viability (NCI-H2405; first compound 0.1 µM): 1.04
relative viability (NCI-H2405; first compound 0.3162 µM): 1.01
relative viability (NCI-H2405; first compound 1 µM): 0.736
relative viability (NCI-H3122; first compound 0.01 µM): 0.933
relative viability (NCI-H3122; first compound 0.03162 µM): 1.02
relative viability (NCI-H3122; first compound 0.1 µM): 1.04
relative viability (NCI-H3122; first compound 0.3162 µM): 0.895
relative viability (NCI-H3122; first compound 1 µM): 1.02
relative viability (NCI-H322M; first compound 0.01 µM): 0.826
relative viability (NCI-H322M; first compound 0.03162 µM): 0.92
relative viability (NCI-H322M; first compound 0.3162 µM): 0.871
relative viability (NCI-H322M; first compound 1 µM): 0.678
relative viability (NCI-H647; first compound 0.01 µM): 0.662
relative viability (NCI-H647; first compound 0.03162 µM): 0.708
relative viability (NCI-H647; first compound 0.1 µM): 0.462
relative viability (NCI-H647; first compound 0.3162 µM): 0.695
relative viability (NCI-H647; first compound 1 µM): 0.757
relative viability (NCI-H727; first compound 0.01 µM): 1.12
relative viability (NCI-H727; first compound 0.03162 µM): 1.31
relative viability (NCI-H727; first compound 0.1 µM): 0.626
relative viability (NCI-H727; first compound 0.3162 µM): 1.04
relative viability (NCI-H727; first compound 1 µM): 1.19
relative viability (RERF-LC-KJ; first compound 0.01 µM): 0.76
relative viability (RERF-LC-KJ; first compound 0.03162 µM): 0.694
relative viability (RERF-LC-KJ; first compound 0.1 µM): 0.775
relative viability (RERF-LC-KJ; first compound 0.3162 µM): 0.64
relative viability (RERF-LC-KJ; first compound 1 µM): 0.707
relative viability (SK-LU-1; first compound 0.01 µM): 0.79
relative viability (SK-LU-1; first compound 0.03162 µM): 0.707
relative viability (SK-LU-1; first compound 0.1 µM): 0.751
relative viability (SK-LU-1; first compound 0.3162 µM): 0.778
relative viability (SK-LU-1; first compound 1 µM): 0.733
